Article PMC12669040, “Tumour-specific STING agonist synthesis via a two-component prodrug system” (Nature Chemistry, 2025)
Several values for one entry are separate records, joined by “and”; a condition that tells them apart may be missing. Identical values can stand only once.

Experiments:
[1] = Colorimetric alkylation rate constant assay with TNB^2− as non-specific thiol; format: physicochemical; parameters: second-order: unit not given here; conditions: for remaining [B]: in µM
[2] = Colorimetric alkylation rate constant assay with thiol N1; format: physicochemical; conditions: for remaining [A]: N1 from calibration curve (N1 in uM); for remaining [A] / remaining [B]: in µM
[3] = Time 2891 sec, [B]0 = 250, Replicates 1-3
[4] = Time 3071 sec, [B]0 = 250, Replicates 1-3
[5] = Time 3252 sec, [B]0 = 250, Replicates 1-3
[6] = Time 3433 sec, [B]0 = 250, Replicates 1-3
[7] = Time 3613 sec, [B]0 = 250, Replicates 1-3

O=C(CCl)Nc1ccccc1 [Compound C2]
remaining [B] ([1]; Replicate 1, 723 sec, [B]0 = 250): 243.908
remaining [B] ([1]; Replicate 1, 903 sec, [B]0 = 250): 243.568
remaining [B] ([1]; Replicate 1, 1084 sec, [B]0 = 250): 243.228
remaining [B] ([1]; Replicate 1, 1265 sec, [B]0 = 250): 242.9
remaining [B] ([1]; Replicate 1, 1445 sec, [B]0 = 250): 242.598
remaining [B] ([1]; Replicate 1, 1626 sec, [B]0 = 250): 242.232
remaining [B] ([1]; Replicate 1, 1806 sec, [B]0 = 250): 241.905
remaining [B] ([1]; Replicate 1, 1988 sec, [B]0 = 250): 241.539
remaining [B] ([1]; Replicate 1, 2168 sec, [B]0 = 250): 241.224
remaining [B] ([1]; Replicate 1, 2349 sec, [B]0 = 250): 240.884
remaining [B] ([1]; Replicate 1, 2530 sec, [B]0 = 250): 240.607
remaining [B] ([1]; Replicate 1, 2710 sec, [B]0 = 250): 240.229
remaining [B] ([1]; Replicate 2, 542 sec, [B]0=250): 245.363
remaining [B] ([1]; Replicate 2, 723 sec, [B]0=250): 245.048
remaining [B] ([1]; Replicate 2, 903 sec, [B]0=250): 244.733
remaining [B] ([1]; Replicate 2, 1084 sec, [B]0=250): 244.393
remaining [B] ([1]; Replicate 2, 1265 sec, [B]0=250): 244.09
remaining [B] ([1]; Replicate 2, 1445 sec, [B]0=250): 243.737
remaining [B] ([1]; Replicate 2, 1626 sec, [B]0=250): 243.435
remaining [B] ([1]; Replicate 2, 1806 sec, [B]0=250): 243.107
remaining [B] ([1]; Replicate 2, 1988 sec, [B]0=250): 242.78
remaining [B] ([1]; Replicate 2, 2168 sec, [B]0=250): 242.452
remaining [B] ([1]; Replicate 2, 2349 sec, [B]0=250): 242.137
remaining [B] ([1]; Replicate 2, 2530 sec, [B]0=250): 241.772
remaining [B] ([1]; Replicate 2, 2710 sec, [B]0=250): 241.469
remaining [B] ([1]; Replicate 3, 723 sec, [B]0=250): 245.156
remaining [B] ([1]; Replicate 3, 903 sec, [B]0=250): 244.866
remaining [B] ([1]; Replicate 3, 1084 sec, [B]0=250): 244.475
remaining [B] ([1]; Replicate 3, 1265 sec, [B]0=250): 244.311
remaining [B] ([1]; Replicate 3, 1445 sec, [B]0=250): 243.732
remaining [B] ([1]; Replicate 3, 1626 sec, [B]0=250): 243.593
remaining [B] ([1]; Replicate 3, 1806 sec, [B]0=250): 243.165
remaining [B] ([1]; Replicate 3, 1988 sec, [B]0=250): 242.824
remaining [B] ([1]; Replicate 3, 2168 sec, [B]0=250): 242.61
remaining [B] ([1]; Replicate 3, 2349 sec, [B]0=250): 242.232
remaining [B] ([1]; Replicate 3, 2530 sec, [B]0=250): 241.917
remaining [B] ([1]; Replicate 3, 2710 sec, [B]0=250): 241.653
second-order [1, 3]: 0.0003773 and 0.0003667 and 0.0004313
remaining [B] [1, 3]: 241.388 and 239.977 and 241.154
second-order [1, 4]: 0.0003928 and 0.0003885 and 0.000446
remaining [B] [1, 4]: 240.909 and 239.662 and 240.814
second-order [1, 5]: 0.0004061 and 0.0003977 and 0.0004618
remaining [B] [1, 5]: 240.708 and 239.321 and 240.524
second-order [1, 6]: 0.0004218 and 0.000411 and 0.0004772
remaining [B] [1, 6]: 240.418 and 238.994 and 240.184
second-order [1, 7]: 0.0004369 and 0.0004267 and 0.0004915
remaining [B] [1, 7]: 240.077
second-order ([1]; Time 3794 sec, [B]0 = 250, Replicates 1-3): 0.0004533 and 0.0004448 and 0.000507
second-order ([1]; Time 3974 sec, [B]0 = 250, Replicates 1-3): 0.0004675 and 0.0004536 and 0.0005214
second-order ([1]; Time 4155 sec, [B]0 = 250, Replicates 1-3): 0.0004823 and 0.0004725 and 0.0005334
second-order ([1]; Time 4336 sec, [B]0 = 250, Replicates 1-3): 0.0004965 and 0.0004915 and 0.0005528
second-order ([1]; Time 4516 sec, [B]0 = 250, Replicates 1-3): 0.0005127 and 0.0005034 and 0.0005668
second-order ([1]; Time 4697 sec, [B]0 = 250, Replicates 1-3): 0.0005253 and 0.000516 and 0.0005808
second-order ([1]; Time 4878 sec, [B]0 = 250, Replicates 1-3): 0.000541 and 0.0005322 and 0.0005962
second-order ([1]; Time 5058 sec, [B]0 = 250, Replicates 1-3): 0.0005592 and 0.0005485 and 0.0006085
second-order ([1]; Time 5239 sec, [B]0 = 250, Replicates 1-3): 0.0005708 and 0.0005619 and 0.0006247
second-order ([1]; Time 5419 sec, [B]0 = 250, Replicates 1-3): 0.0005891 and 0.0005723 and 0.0006371
second-order ([1]; Time 5600 sec, [B]0 = 250, Replicates 1-3): 0.0006027 and 0.0005925 and 0.000654
second-order ([1]; Time 5781 sec, [B]0 = 250, Replicates 1-3): 0.0006182 and 0.000611 and 0.0006672
second-order ([1]; Time 5961 sec, [B]0 = 250, Replicates 1-3): 0.0006343 and 0.000624 and 0.0006855
remaining [A] ([2]; Replicate 1, time 576 sec): 80.4651
remaining [B] ([2]; Replicate 1, time 576 sec, [B]0 = 250): 226.345
second-order ([2]; Replicate 1, time 576 sec, second-order plot value): 0.001085
remaining [A] ([2]; Replicate 1, time 606 sec): 79.6386
remaining [B] ([2]; Replicate 1, time 606 sec, [B]0 = 250): 225.519
second-order ([2]; Replicate 1, time 606 sec, second-order plot value): 0.001131
remaining [A] ([2]; Replicate 2, time 576 sec): 80.4092
remaining [B] ([2]; Replicate 2, time 576 sec, [B]0=250): 227.268
second-order ([2]; Replicate 2, time 576 sec, second-order plot value): 0.001046
remaining [A] ([2]; Replicate 2, time 606 sec): 79.1621
remaining [B] ([2]; Replicate 2, time 606 sec, [B]0=250): 226.02
second-order ([2]; Replicate 2, time 606 sec, second-order plot value): 0.001115
remaining [A] ([2]; Replicate 3, time 576 sec): 81.6859
remaining [B] ([2]; Replicate 3, time 576 sec, [B]0=250): 227.139
second-order ([2]; Replicate 3, time 576 sec, second-order plot value): 0.001037
remaining [A] ([2]; Replicate 3, time 606 sec): 80.8202
remaining [B] ([2]; Replicate 3, time 606 sec, [B]0=250): 226.273
second-order ([2]; Replicate 3, time 606 sec, second-order plot value): 0.001084
remaining [B] ([2]; time 0 sec, [B]0 = 250, replicates 1-3): 247.836 and 246.58 and 246.712
second-order ([2]; time 0 sec, replicates 1-3): 0.0001305 and 8.4046e-5 and 0.0001345
remaining [B] ([2]; time 30 sec, [B]0 = 250, replicates 1-3): 246.591 and 244.557 and 245.38
second-order ([2]; time 30 sec, replicates 1-3): 0.000185 and 0.0001335 and 0.0002172
remaining [B] ([2]; time 60 sec, [B]0 = 250, replicates 1-3): 244.968 and 243.73 and 244.048
second-order ([2]; time 60 sec, replicates 1-3): 0.0002407 and 0.0001994 and 0.0002516
remaining [B] ([2]; time 91 sec, [B]0 = 250, replicates 1-3): 243.804 and 242.562 and 242.8
second-order ([2]; time 91 sec, replicates 1-3): 0.0002937 and 0.0002475 and 0.000301
remaining [B] ([2]; time 121 sec, [B]0 = 250, replicates 1-3): 243.047 and 241.251 and 241.752
second-order ([2]; time 121 sec, replicates 1-3): 0.0003391 and 0.0002792 and 0.0003575
remaining [B] ([2]; time 151 sec, [B]0 = 250, replicates 1-3): 242.371 and 240.196 and 240.873
second-order ([2]; time 151 sec, replicates 1-3): 0.0003777 and 0.0003079 and 0.0004037
remaining [B] ([2]; time 182 sec, [B]0 = 250, replicates 1-3): 241.478 and 239.142 and 240.023
second-order ([2]; time 182 sec, replicates 1-3): 0.0004154 and 0.0003461 and 0.0004506
remaining [B] ([2]; time 212 sec, [B]0 = 250, replicates 1-3): 240.882 and 238.087 and 239.314
second-order ([2]; time 212 sec, replicates 1-3): 0.0004473 and 0.0003719 and 0.0004982
remaining [B] ([2]; time 242 sec, [B]0 = 250, replicates 1-3): 239.746 and 237.004 and 238.605
second-order ([2]; time 242 sec, replicates 1-3): 0.0004795 and 0.0004218 and 0.000548
remaining [B] ([2]; time 273 sec, [B]0 = 250, replicates 1-3): 238.772 and 235.921 and 237.868
second-order ([2]; time 273 sec, replicates 1-3): 0.0005133 and 0.0004652 and 0.0005985
remaining [B] ([2]; time 303 sec, [B]0 = 250, replicates 1-3): 237.095 and 234.981 and 237.103
second-order ([2]; time 303 sec, replicates 1-3): 0.0005489 and 0.0005414 and 0.0006431
remaining [B] ([2]; time 333 sec, [B]0 = 250, replicates 1-3): 235.255 and 233.898 and 236.026
second-order ([2]; time 333 sec, replicates 1-3): 0.0005997 and 0.0006273 and 0.0006953
remaining [B] ([2]; time 364 sec, [B]0 = 250, replicates 1-3): 234.038 and 233.014 and 234.41
second-order ([2]; time 364 sec, replicates 1-3): 0.0006774 and 0.0006854 and 0.0007385
remaining [B] ([2]; time 394 sec, [B]0 = 250, replicates 1-3): 232.874 and 231.988 and 233.73
second-order ([2]; time 394 sec, replicates 1-3): 0.0007107 and 0.0007421 and 0.0007895
remaining [B] ([2]; time 424 sec, [B]0 = 250, replicates 1-3): 231.738 and 230.934 and 232.256
second-order ([2]; time 424 sec, replicates 1-3): 0.0007842 and 0.0007984 and 0.0008427
remaining [B] ([2]; time 454 sec, [B]0 = 250, replicates 1-3): 230.764 and 230.107 and 231.378
second-order ([2]; time 454 sec, replicates 1-3): 0.0008288 and 0.0008475 and 0.000885
remaining [B] ([2]; time 485 sec, [B]0 = 250, replicates 1-3): 229.871 and 229.167 and 230.13
remaining [B] ([2]; time 515 sec, [B]0 = 250, replicates 1-3): 228.978 and 228.226 and 228.94
second-order ([2]; time 515 sec, replicates 1-3): 0.0009559 and 0.0009395 and 0.0009836
remaining [B] ([2]; time 545 sec, [B]0 = 250, replicates 1-3): 227.95 and 227.314 and 227.948
second-order ([2]; time 545 sec, replicates 1-3): 0.001009 and 0.0009937 and 0.001032
